The target in test [1] is T1, bcd (butyryl-CoA dehydrogenase) (Megasphaera elsdenii, UniProt Q06319).
T1 construct: isolated bcd component without EtfAB, C-terminal Strep II tag (pASG-IBA3), expressed in E. coli BL21; FAD-loaded, CoA persulfide removed by dithionite
T1 sequence (Q06319 1-383): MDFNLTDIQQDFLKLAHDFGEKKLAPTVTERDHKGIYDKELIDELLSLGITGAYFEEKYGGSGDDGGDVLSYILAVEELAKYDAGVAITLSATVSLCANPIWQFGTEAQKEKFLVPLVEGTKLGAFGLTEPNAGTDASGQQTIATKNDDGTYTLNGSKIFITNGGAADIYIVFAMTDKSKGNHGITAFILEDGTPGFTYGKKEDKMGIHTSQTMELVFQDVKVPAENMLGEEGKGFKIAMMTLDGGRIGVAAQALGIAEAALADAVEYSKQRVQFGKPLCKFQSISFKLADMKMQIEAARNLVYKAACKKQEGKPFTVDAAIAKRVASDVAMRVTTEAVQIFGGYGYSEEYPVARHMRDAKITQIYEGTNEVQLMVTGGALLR
The experiment in a line: stopped-flow reoxidation of reduced bcd; charge-transfer complex absorbance. It counts as biochemical. As to conditions: dithionite-reduced bcd, 50 mM Tris-HCl, 150 mM NaCl, pH 7.5, 10 °C, anaerobic.

The target of test [2] is T1, bcd (butyryl-CoA dehydrogenase). The test is described as follows: UV-visible titration and EPR of the bound flavin. The test is classed as binding. Conditions: dithionite titrations at pH 6.0, 7.5 and 9.0, 25 °C; EPR at 77 K.
The target is the same in test [3]. The test is described as follows: stopped-flow reduction of bcd FAD at […] nm, hyperbolic fit of kobs versus [butyryl-CoA]. It counts as biochemical. Conditions: oxidized bcd 10 μM, 50 mM Tris-HCl, 150 mM NaCl, pH 7.5, 10 °C, anaerobic; reverse of the physiological direction; read-out: Kd (apparent).
Test [4] addresses T2, EtfAB, the electron-transferring flavoprotein component of the crotonyl-CoA-dependent NADH:ferredoxin … (Megasphaera elsdenii, UniProt O85692 1-338; O85691 1-270).
T2 construct: Electron-transferring flavoprotein alpha subunit (EtfA), Megasphaera elsdenii; Electron-transferring flavoprotein beta subunit (EtfB), Megasphaera elsdenii; prereduced with sodium dithionite before the assay; Plasmid derived from pASG-IBA3; also called prereduced EtfAB; source: E. coli BL21, purified (Strep-Tactin XT Superflow)
T2 sequence (looked up) 1: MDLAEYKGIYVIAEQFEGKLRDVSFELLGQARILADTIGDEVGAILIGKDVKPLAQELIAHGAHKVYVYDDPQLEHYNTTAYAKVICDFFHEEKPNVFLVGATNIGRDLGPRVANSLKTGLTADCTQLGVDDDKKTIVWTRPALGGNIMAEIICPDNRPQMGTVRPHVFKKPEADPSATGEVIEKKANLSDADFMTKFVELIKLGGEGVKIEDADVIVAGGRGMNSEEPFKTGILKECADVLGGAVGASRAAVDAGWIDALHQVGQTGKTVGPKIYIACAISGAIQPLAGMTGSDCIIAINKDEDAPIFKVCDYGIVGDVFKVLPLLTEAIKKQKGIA
T2 sequence (looked up) 2: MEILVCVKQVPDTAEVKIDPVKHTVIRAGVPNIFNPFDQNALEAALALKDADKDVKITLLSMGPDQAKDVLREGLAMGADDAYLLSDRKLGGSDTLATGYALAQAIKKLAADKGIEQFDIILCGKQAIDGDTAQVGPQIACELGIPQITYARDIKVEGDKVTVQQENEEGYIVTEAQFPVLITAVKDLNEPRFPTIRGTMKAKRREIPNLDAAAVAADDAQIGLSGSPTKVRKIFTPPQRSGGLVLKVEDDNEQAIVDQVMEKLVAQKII
The test is described as follows: stopped-flow spectrophotometry (rate of electron transfer against protein concentration); prereduced EtfAB mixed with oxidized bcd, anaerobic, monitored at 450 nm; 1:1 ratio at 2 to 70 uM, or 3 uM EtfAB with 3 to 24 uM bcd; 50 mM Tris-HCl, 150 mM NaCl, pH 7.5, 25 C; Kd limit inferred from the rate constant being independent of concentration. As to conditions: both partners purified.

Bounds are passed on as bounds.

Turning to `C/C=C/C(=O)SCCNC(=O)CCNC(=O)[C@H](O)C(C)(C)COP(=O)(O)OP(=O)(O)OC[C@H]1O[C@@H](n2cnc3c(N)ncnc32)[C@H](O)[C@@H]1OP(=O)(O)O` [crotonyl-CoA], the “stopped-flow reoxidation of reduced bcd; charge-transfer complex absorbance” value in test [1] is “indicating extremely rapid and tight binding of crotonyl-CoA to bcd”.
On to `Cc1cc2nc3c(=O)[nH]c(=O)nc-3n(C[C@H](O)[C@H](O)[C@H](O)COP(=O)(O)OP(=O)(O)OC[C@H]3O[C@@H](n4cnc5c(N)ncnc54)[C@H](O)[C@@H]3O)c2cc1C` [FAD], for which the “UV-visible titration and EPR of the bound flavin” value in test [2] is recorded as “the one-electron reduced FAD neutral semiquinone (FADH•) accumulates transiently”.
For the molecule `CCCC(=O)SCCNC(=O)CCNC(=O)[C@H](O)C(C)(C)COP(=O)(O)OP(=O)(O)OC[C@H]1O[C@@H](n2cnc3c(N)ncnc32)[C@H](O)[C@@H]1OP(=O)(O)O` [butyryl-CoA], the Kd in test [3] came out at 60 µM.

B1: butyryl-CoA dehydrogenase (bcd) component of EtfAB-bcd from Megasphaera elsdenii (enzyme)
chain: MDFNLTDIQQDFLKLAHDFGEKKLAPTVTERDHKGIYDKELIDELLSLGITGAYFEEKYGGSGDDGGDVLSYILAVEELAKYDAGVAITLSATVSLCANPIWQFGTEAQKEKFLVPLVEGTKLGAFGLTEPNAGTDASGQQTIATKNDDGTYTLNGSKIFITNGGAADIYIVFAMTDKSKGNHGITAFILEDGTPGFTYGKKEDKMGIHTSQTMELVFQDVKVPAENMLGEEGKGFKIAMMTLDGGRIGVAAQALGIAEAALADAVEYSKQRVQFGKPLCKFQSISFKLADMKMQIEAARNLVYKAACKKQEGKPFTVDAAIAKRVASDVAMRVTTEAVQIFGGYGYSEEYPVARHMRDAKITQIYEGTNEVQLMVTGGALLR
notes: Butyryl-CoA dehydrogenase, Megasphaera elsdenii, locus tag Mels_2128; oxidized form in the assay; Plasmid derived from pASG-IBA3; also called oxidized bcd; source: E. coli BL21, purified (Strep-Tactin XT Superflow)
As for B1, in test [4], the Kd was under 2 µM.

The values above are taken from article PMC10320503, “Rapid-reaction kinetics of the butyryl-CoA dehydrogenase component of the electron-bifurcating crotonyl-CoA-dependent NADH:ferredoxin oxidoreductase from Megasphaera elsdenii” (The Journal of Biological Chemistry, 2023).
